Test system: F420-dependent dehydrogenase (ORF 9)
Type: biochemical, Rhodococcus erythropolis HL PM-1

In the case of `O=[N+]([O-])c1ccc(O)c([N+](=O)[O-])c1` [DNP, 2,4-dinitrophenol], the “reduction of the substrate to its Meisenheimer complex upon addition of ORF 9 extract” value was “reduces”.
